From patent US4954156A, “N,N-dihalo-2-imidazolidinones and N-halo-2-oxazolidinones as urease and nitrification inhibitors” (Tennessee Valley Authority, priority 1989, dated 1990)
Values joined by “and” are separate entries in the source; they are usually repeats but may differ in a detail not shown here. Identical values can stand only once.

Key:
[1] = target: purified Jack Bean urease (Canavalia ensiformis, UniProt P07374); test: Aqueous system (pH stat) urease inhibition test; type: biochemical; settings: 25° C
Protocol: (§1) Embodiment 1: Urease activity of inhibitor test compounds may be evaluated either in aqueous or in soil systems. When aqueous systems are used, urea plus a test compound with possible urease inhibition activity and relatively pure urease enzyme are incubated together to determine the effects of the test compound on urease-catalyzed hydrolysis of urea. When soil systems are used, urea and the test compound are added to moist soil, and the urease enzyme is supplied from the soil. The main disadvantage of using soil systems is that the true activity of test compounds may be masked because of reactions between the test compound and soil. Thus, basic studies for understanding chemical structure-activity relationships are usually done in aqueous systems.
Aqueous System (pH Stat) Test Procedure: The aqueous system urease inhibition tests were conducted at 25° C using purified Jack Bean urease enzyme, 50,000-80,000 units per gram, a unit of urease will liberate 1 umole of NH3 from urea per minute at pH 7.0 at 25° C.
An appropriate amount of inhibitor [such as 37.0 uL (microliters) of a 1.169×10^(-3) M (moles/liter) inhibitor solution] and 100 uL of a solution of 13.9130 mg Jack Bean urease enzyme in 10.00 mL of water were diluted to 25.00 mL. This combined solution was allowed to sit undisturbed at 23° C. for twenty (20) minutes. Then 20.0 uL of a preservative solution was added to prevent degradation of the urease enzyme during the course of the experiment. The preservative solution contained 5.655×10^-4 moles/liter ethylenediaminetetraacetic acid (disodium salt) and 1.166×10^-3) moles/liter dithiothreitol.
Immediately after the addition of the preservative solution to the inhibitor/urease solution, 800 uL of a 0.1246 M urea solution was added and a computer assisted titrimeter was started. This titrimeter maintained a constant pH of 6.97 during the course of the experiment by neutralizing the ammonia (resulting from urease hydrolysis of urea) with 0.01142 M hydrochloric acid (HCl). The volume (measured to 0.001 mL) of HCl added was automatically recorded every 15 seconds for up to 20.0 minutes or until a total volume of 2.500 mL of HCl was added.
Experiments also were conducted without inhibitor (blank) and with the inhibitor PPDA for comparison. The experiments were replicated, and the percent inhibition for each of the inhibitors at the various concentrations was calculated as follows:
% inhibition=(kinhibitor /kblank)×100 (4)
where kinhibitor and kblank are the average rates of HCl addition for the inhibitor and blank experiments, respectively. The rates of HCl addition were calculated by linear regression of the titration curves.

[2] = test system: nitrification of ammonium nitrogen in soil; test: Soil nitrification inhibition test (Mountainview silt loam, banded); settings: for % inhibition (nitrification) / Net mg NO2N / Net mg NO3N: 25° C, 410 mg urea + 41 mg inhibitor; for Nitrite accumulation in the soil: during the 5 weeks incubation, greater than with dicyandiamide
Protocol: Embodiment 2: The N-Halamine compounds were tested for nitrification inhibition using the soil testing procedure described below.
Mountainview silt loam soil was screened through a 2 mm sieve. Plexiglas containers (8×8×6 cm) were packed half full with the soil and packed to a bulk density of 1.0 g/cm^3 and wetted to field capacity (approximately 20 weight percent moisture). The urea 410 mg per container) and inhibitor (41 mg per container) were added in a narrow band (0.5 cm wide X 6 cm long), and additional soil was added to fill the containers. The total amount of dry soil added was 384 g. The containers were incubated at 25° C. During incubation the containers were checked periodically for moisture loss and additional water added as needed to maintain moisture levels.
The individual containers were removed from the incubator at 1, 2, 3, 4, and 5 week intervals. After removal from the incubator the contents of the container were transferred to a plastic bag and thoroughly mixed. A 10-g sample of soil (dry basis) was taken from the bag and extracted with 100 ml of 2 N KCL. The extract was filtered through Whatman #41 filter paper and refrigerated until analyzed. Samples were analyzed for NO3-N- NO2-N- and urea-N using a colorimetric procedure. Some samples also were analyzed for NH4-N.
The percent nitrification inhibition was calculated according to the method of Bundy and Bremner [G. L. Bundy and J. M. Bremner, Soil Sci. Soc. Am. Proc. 37, 396-398 (1973)]
% nitrification inhibition=[(C-S)/C]×100
where C=net amount of NO3-N produced in the control (no inhibitor added), and S=net amount of NO3-N produced in the inhibitor treated sample.
^a Concentrations are in net mg/container. All containers had 384 g
soil (dry), 410 mg urea (188.6 mg N) and 41 mg inhibitor. Samples were
extracted 10 g → 100 mls 2N KCl. The formulas used for calculation
where C = net NO3N produced in control (no inhibitor), S = net
NO3N produced in inhibitor treated sample, net NO3N =
(NO3N) - (soil NO3N), and net NO2N = (NO2N) - (soil
NO2N). Values are averages of two replicate samples.

[3] = test system: soil urease (urease-active Hastings silt loam soil); test: Banded soil system urease inhibition test (Hastings silt loam); settings: 410 mg urea + 41 mg inhibitor
Protocol: as §1
Soil System Test Procedure: The soil system test procedure used was a modification of the previous procedures of other researchers L. A. Douglas and J. M. Bremner, Soil Biol. Biochem. 3, 309-315 (1971) and J. M. Bremner and R. L. Mulvaney, "Urease Activity in Soils," Soil Enzymes 5, R. G. Burns, editor, Academic Press, 149-195 (1978)]. In this modified procedure powdered mixtures of urea and test compounds were applied in narrow bands in the soil rather than being mixed throughout the soil. The banded configuration also results in concentration gradients of urea, urea hydrolysis products, test compounds, and test compound decomposition products similar to those in the immediate vicinity of urea granules containing the test compounds. Another advantage of the banded configuration compared with mixing throughout the soil is that slightly soluble test compounds can be easily band applied, whereas it is difficult to achieve a known degree of mixing of a small quantity of slightly soluble test compound with soil. The banded configuration also enables testing for urease inhibition under realistic soil conditions prior to the development of techniques for cogranulating a wide range of test compounds with urea.
A detailed description of the banded soil testing procedure follows. Urease-active soil (Hastings silt loam) was moistened to a moisture content of 20 percent dry weight basis) and preincubated at room temperature for two days. Plexiglas containers (6×6×6 cm) were half filled with soil and packed to a bulk density of 1.0 g/cm . Urea (410 mg) or urea (410 mg) plus inhibitor (41 mg, thoroughly mixed with the urea) was distributed in a narrow band about 0.5 cm wide and 6 cm long on the soil surface. The containers then were filled with soil, again packing to a bulk density of 1.0 g/cm^3. The containers were incubated at 25° C. for the desired reaction period, after which the containers were frozen to about -5° C. to stop urea hydrolysis. Immediately prior to extracting the remaining urea from the soil, said soil was allowed to thaw. Soil from each container was thoroughly mixed, and a 10-g sample was extracted with 100 ml of 2 M KCl containing phenylmercuric acetate to prevent urea hydrolysis during handling [L. A. Douglas and J. M. Bremner, Soil. Sci. Soc. Am. Proc. 34, 859-862 (1970)]. Urea in the extracts was determined colorimetrically as a measure of unhydrolyzed urea and the results expressed as percent unhydrolyzed urea-N.
^a The plexiglas containers measured 6 × 6 × 6 cm.
Hastings silt loam soil was utilized and packed to a bulk density of 1
gm/cm^3 dry basis. The soil was wet to near field capacity (20%
moisture) and 260 g of wetted soil (216 g dry soil) was added per
container. The containers were packed half full, urea and inhibitor were
added, and the remaining soil was added. The amount of urea added = 410 m

Chain of purified Jack Bean urease (P07374 whole entry, looked up): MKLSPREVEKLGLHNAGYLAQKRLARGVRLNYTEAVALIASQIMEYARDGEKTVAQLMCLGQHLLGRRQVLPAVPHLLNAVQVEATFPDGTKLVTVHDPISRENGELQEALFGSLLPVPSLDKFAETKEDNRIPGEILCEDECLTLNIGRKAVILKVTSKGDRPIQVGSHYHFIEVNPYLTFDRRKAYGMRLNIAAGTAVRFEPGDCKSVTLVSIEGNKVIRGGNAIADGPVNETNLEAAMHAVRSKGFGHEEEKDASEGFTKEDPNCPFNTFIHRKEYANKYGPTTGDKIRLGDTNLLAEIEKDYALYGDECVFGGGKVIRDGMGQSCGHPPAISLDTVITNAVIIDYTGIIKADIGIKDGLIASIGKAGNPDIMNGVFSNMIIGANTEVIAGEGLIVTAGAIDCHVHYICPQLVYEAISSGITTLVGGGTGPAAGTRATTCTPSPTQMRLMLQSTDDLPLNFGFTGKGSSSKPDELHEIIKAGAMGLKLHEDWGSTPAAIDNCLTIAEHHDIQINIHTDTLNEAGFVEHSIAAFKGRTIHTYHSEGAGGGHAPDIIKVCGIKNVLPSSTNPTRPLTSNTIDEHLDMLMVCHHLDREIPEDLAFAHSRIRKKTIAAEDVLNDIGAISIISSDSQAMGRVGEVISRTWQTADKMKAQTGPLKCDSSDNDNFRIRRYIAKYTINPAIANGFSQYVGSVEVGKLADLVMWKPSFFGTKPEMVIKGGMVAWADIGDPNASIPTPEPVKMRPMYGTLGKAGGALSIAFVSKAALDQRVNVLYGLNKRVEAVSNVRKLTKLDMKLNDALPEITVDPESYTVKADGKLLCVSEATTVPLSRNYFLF

CC1(C)N(Cl)C(=O)N(Cl)C1(C)C [A, 1,3-dichloro-4,4,5,5-tetramethyl-2-imidazolidinone]
% urease inhibition ([1]; inhibitor 1.440 x 10^-8 moles/experiment): 86% | % urease inhibition ([1]; inhibitor 2.160 x 10^-8 moles/experiment): 95% | % urease inhibition ([1]; inhibitor 4.320 x 10^-8 moles/experiment): 100% | percent nitrification inhibition ([2]; separate experiment (Examples VII, IX): sampled only at end of 5-week incubation, no dicyandiamide comparison): 41.8%

CC1(C)N(Br)C(=O)N(Br)C1(C)C [AB, 1,3-dibromo-4,4,5,5-tetramethyl-2-imidazolidinone]
% unhydrolyzed urea-N ([3]; 3 days incubation at 25° C): 70.59% and 70.6% | PPM urea-N ([3]; 3 days incubation at 25° C): 62.5 PPM | % unhydrolyzed urea-N ([3]; 6 days incubation at 25° C): 15.02% and 15.0% | PPM urea-N ([3]; 6 days incubation at 25° C): 13.3 PPM | % inhibition (nitrification) ([2]; 1 week): 100.0% | Net mg NO2N ([2]; 1 week): -0.05 mg/container | Net mg NO3N ([2]; 1 week): 0.0 mg/container | % inhibition (nitrification) ([2]; 2 weeks): 100.0% | Net mg NO2N ([2]; 2 weeks): 0.04 mg/container | Net mg NO3N ([2]; 2 weeks): 0.0 mg/container | % inhibition (nitrification) ([2]; 3 weeks): 100.0% | Net mg NO2N ([2]; 3 weeks): 0.03 mg/container | Net mg NO3N ([2]; 3 weeks): 0.0 mg/container | % inhibition (nitrification) ([2]; 4 weeks): 100.0% | Net mg NO2N ([2]; 4 weeks): 0.82 mg/container | Net mg NO3N ([2]; 4 weeks): 0.0 mg/container | % inhibition (nitrification) ([2]; 5 weeks): 98.3% | Net mg NO2N ([2]; 5 weeks): 2.63 mg/container | Net mg NO3N ([2]; 5 weeks): 3.1 mg/container | Nitrite accumulation in the soil [2]: well within plant tolerance levels

N#CN=C(N)N [Dicyandiamide, dicyandiamide, reference compound]
% inhibition (nitrification) ([2]; 1 week): 78.2% | Net mg NO2N ([2]; 1 week): 0.17 mg/container | Net mg NO3N ([2]; 1 week): 4.6 mg/container | % inhibition (nitrification) ([2]; 2 weeks): 88.6% | Net mg NO2N ([2]; 2 weeks): 0.19 mg/container | Net mg NO3N ([2]; 2 weeks): 17.7 mg/container | % inhibition (nitrification) ([2]; 3 weeks): 87.4% | Net mg NO2N ([2]; 3 weeks): 0.01 mg/container | Net mg NO3N ([2]; 3 weeks): 22.7 mg/container | % inhibition (nitrification) ([2]; 4 weeks): 87.4% | Net mg NO2N ([2]; 4 weeks): 0.01 mg/container | Net mg NO3N ([2]; 4 weeks): 22.7 mg/container | % inhibition (nitrification) ([2]; 5 weeks): 90.0% | Net mg NO2N ([2]; 5 weeks): -0.02 mg/container | Net mg NO3N ([2]; 5 weeks): 18.4 mg/container | % inhibition (nitrification) ([2]; 5 weeks, listed as dicyandiamide): 90%

CC1(C)COC(=O)N1Cl [I, 3-chloro-4,4-dimethyl-2-oxazolidinone]
% unhydrolyzed urea-N ([3]; 3 days incubation at 25° C): 82.45% and 82.4% | PPM urea-N ([3]; 3 days incubation at 25° C): 73.0 PPM | % unhydrolyzed urea-N ([3]; 6 days incubation at 25° C): 56.47% and 56.5% | PPM urea-N ([3]; 6 days incubation at 25° C): 50.0 PPM | % inhibition (nitrification) ([2]; 1 week): 74.4% | Net mg NO2N ([2]; 1 week): 0.28 mg/container | Net mg NO3N ([2]; 1 week): 5.4 mg/container | % inhibition (nitrification) ([2]; 2 weeks): 68.9% | Net mg NO2N ([2]; 2 weeks): 0.49 mg/container | Net mg NO3N ([2]; 2 weeks): 48.4 mg/container | % inhibition (nitrification) ([2]; 3 weeks): 4.9% | Net mg NO2N ([2]; 3 weeks): 0.07 mg/container | Net mg NO3N ([2]; 3 weeks): 171.3 mg/container | % inhibition (nitrification) ([2]; 4 weeks): -2.8% | Net mg NO2N ([2]; 4 weeks): 0.02 mg/container | Net mg NO3N ([2]; 4 weeks): 185.5 mg/container | % inhibition (nitrification) ([2]; 5 weeks): -1.5% | Net mg NO2N ([2]; 5 weeks): -0.01 mg/container | Net mg NO3N ([2]; 5 weeks): 187.4 mg/container | % inhibition (nitrification) ([2]; 5 weeks, listed as 3-chloro-4,4-dimethyl-2-oxazolidinone): 0% | nitrification inhibition effect ([2]; after three weeks): almost completely exhausted

CC1(C)COC(=O)N1Br [IB, 3-bromo-4,4-dimethyl-2-oxazolidinone]
% unhydrolyzed urea-N ([3]; 3 days incubation at 25° C): 65.51% and 65.5% | PPM urea-N ([3]; 3 days incubation at 25° C): 58.0 PPM | % unhydrolyzed urea-N ([3]; 6 days incubation at 25° C): 10.05% and 10.0% | PPM urea-N ([3]; 6 days incubation at 25° C): 8.9 PPM | % inhibition (nitrification) ([2]; 1 week): 100.0% | Net mg NO2N ([2]; 1 week): -0.02 mg/container | Net mg NO3N ([2]; 1 week): 0.0 mg/container | % inhibition (nitrification) ([2]; 1 week, listed as 3-bromo-4,4-dimethyl-2-oxazolidinone): 100% | % inhibition (nitrification) ([2]; 2 weeks): 100.0% | Net mg NO2N ([2]; 2 weeks): 0.06 mg/container | Net mg NO3N ([2]; 2 weeks): 0.0 mg/container | % inhibition (nitrification) ([2]; 3 weeks): 100.0% | Net mg NO2N ([2]; 3 weeks): 0.12 mg/container | Net mg NO3N ([2]; 3 weeks): 0.0 mg/container | % inhibition (nitrification) ([2]; 4 weeks): 100.0% | Net mg NO2N ([2]; 4 weeks): 0.52 mg/container | Net mg NO3N ([2]; 4 weeks): 0.0 mg/container | % inhibition (nitrification) ([2]; 5 weeks): 99.6% | Net mg NO2N ([2]; 5 weeks): 2.64 mg/container | Net mg NO3N ([2]; 5 weeks): 0.8 mg/container | Nitrite accumulation in the soil [2]: well within plant tolerance levels

NP(N)(=O)Oc1ccccc1 [PPDA, Phenyl phosphorodiamidate, reference compound]
% urease inhibition ([1]; inhibitor 0.108 x 10^-8 moles/experiment): 99% | % urease inhibition ([1]; inhibitor 0.216 x 10^-8 moles/experiment): 100% | % unhydrolyzed urea-N ([3]; 3 days incubation at 25° C): 94.31% and 94.3% | PPM urea-N ([3]; 3 days incubation at 25° C): 83.5 PPM | % unhydrolyzed urea-N ([3]; 6 days incubation at 25° C): 58.73% and 58.7% | PPM urea-N ([3]; 6 days incubation at 25° C): 52 PPM
